According to patent publication US20160303108A1, “NOVEL DOSAGE FORM AND FORMULATION OF ABEDITEROL” (Almirall, S.A., priority 2012, published 2016):
Marks after values point to notes of the source that are not given here.

Tests used:
[1] = system: persistent asthmatic patients; test: Clinical phase IIa single-dose cross-over study in persistent asthma (FEV1, safety, tolerability); type: in vivo, human
Source text: (§1) Clinical phase IIa study: A randomised, single dose, double-blind, double-dummy, 6 way complete cross-over, placebo and active comparator controlled, assesses the efficacy, safety and tolerability of single doses of abediterol administered once daily by inhalation compared to placebo and active comparator in persistent asthmatic patients.
(§2) Methods: 62 patients (Adult men and women aged 18-70 years) with a clinical diagnosis of persistent asthma, as defined by the 2011 GINA guideline, for at least 6 months prior to screening and with a FEV1 61-85% of the predicted normal values (according to Quanjer et al. 1993) were randomised to treatment sequences comprising a single-dose administration of abediterol (at metered nominal doses of 0.313, 0.625, 1.25 and 2.5 micrograms in the Genuair® device), one administration of salbutamol (at a metered nominal dose of 400 micrograms (100 micrograms×4 puffs) in the Ventolin Evohaler® device) and placebo (administered in both Genuair® and Ventolin Evohaler®) administered all of them by means of […]. The washout period between each administration was at least 7 days.

[2] = system: patients with stable moderate to severe chronic obstructive pulmonary disease (COPD); test: Clinical phase IIa single-dose cross-over study in stable moderate to severe COPD (trough FEV1, safety, tolerability); type: in vivo, human; conditions: for Change from baseline in morning pre-dose (trough) FEV1 at Day 2: 23-24 h after administration
Source text: as §1, with “patients with stable moderate to severe chronic obstructive pulmonary disease (COPD).” for “persistent asthmatic patients.”
(§3) Methods: 63 patients (men and women aged ≧40 years) with a clinical diagnosis of stable moderate to severe COPD, as defined by the 2011 GOLD guideline, with no signs of an exacerbation within 6 weeks prior to the screening visit and with a FEV1 30-80% of the predicted normal values (according to Quanjer et al. 1993) were randomised to treatment sequences comprising a single-dose administration of abediterol (at a metered nominal dose of 0.625, 2.5, 5 and 10 micrograms in the Genuair® device), one administration of indacaterol (at a metered nominal dose of 150 micrograms once daily in the Onbrez Breezhaler® device) and placebo (administered in both Genuair® and Onbrez Breezhaler®). The washout period between each administration was at least 7 days. Lung function measurements included (by spirometry) trough FEV1. Trough FEV1 is defined as a main FEV1 value between 23 and 24 h after Investigational Medicinal Product (IMP) administration.

[3] = Measurement of the delivered dose (collection tube, Genuair inhaler, HPLC); type: physicochemical
Procedure: The measurement of the delivered dose is carried out based on Ph. Eur. Chapter 2.9.18 and USP <601> using “collection tube” apparatus (CT). For this, the Genuair® inhaler is fitted to the Collection Tube via an adapter, the dosage key of the Genuair® inhaler is pressed and released and then 2 L or 4 L of air are sucked through the inhaler and the Collection Tube (the inspiratory flow rate through the inhaler was approx. 65 L/min at a pressure drop of 4 KPa). Subsequently, the inhalation powder delivered to the Collection Tube is extracted with solvent and analyzed using High Performance Liquid chromatography equipment (HPLC).

[4] = Measurement of the fine particle dose (FPD<5 μm, Anderson Cascade Impactor, Genuair inhaler); type: physicochemical
Procedure: The test on the aerodynamic assessment of the fine particles (FPD<5 μm) of the inhalation powder composition is carried out in combination with the Genuair® inhaler. The Fine Particle Fraction of abediterol free base was calculated on basis of the principles of the aerodynamic assessment of fine particles according to the Current European pharmacopoeia (Ph. Eur. Chapter 2.9.18) and USP <601> by the aid of aerodynamic impactor analyses using a modified Anderson Cascade Impactor (ACI), 60 L/min-configuration including pre-separator, stage −1, −0, and stage 1-7 (filter stage). The content of the active ingredient on each stage of the impactor is determined my means of HPLC.
The fine particle dose (FPD<5 μm) is calculated based on Ph. Eur. Chapter 2.9.18 and USP <601> by point to point interpolation per dosage. Linear point to point interpolation is done between the stages with a corresponding effective cut-off diameter which enclose the 5 μm mark.
To obtain the Fine Particle Dose, the cumulative percent value (y-value) at which the line of data plot crosses 5 μm mark is determined. […]
FPD [μg]=yFPD·F/100% • FPD=Fine particle dose<5 μm of the active ingredient per dosage [μg]. • yFPD=y-value of cumulative percentage of mass at a particle size of 5 μm evaluated by linear point to point interpolation [%]. • F=sum of mass on stage −1-stage 7 (filter) per dosage [μg].

[5] = system: asthmatic and COPD patients; test: Overall conclusion of the phase IIa studies in asthmatic and COPD patients; type: in vivo, human
Source text: as §2, §3

[6] = nominal dose of 1.25 micrograms abediterol free base
[7] = nominal dose of 2.5 micrograms abediterol free base

Compound: O=c1ccc2c([C@@H](O)CNCCCCCCOCC(F)(F)c3ccccc3)ccc(O)c2[nH]1 [Abediterol, 5-(2-{[6-(2,2-difluoro-2-phenylethoxy)hexyl]amino}-1(R)-hydroxyethyl)-8-hydroxyquinolin-2(1H)-one]
- Tolerability (ECG, laboratory parameters, adverse events) ([1]; asthma patients, doses 0.313-2.5 micrograms, no dose-dependent effect): well tolerated
- Bronchodilatory effect compared with salbutamol ([1]; doses of 1.25 and 2.5 micrograms vs salbutamol 400 micrograms): increased bronchodilatory effect
- Time to peak FEV1 at day 1 ([1]; post-dose, all abediterol doses (0.313-2.5 micrograms)): ≤ 4 h
- Change from baseline in peak FEV1 on Day 1 ([1]; single inhaled dose 0.313 μg, Genuair, n = 60): 477* ml
- Change from baseline in peak FEV1 on Day 1 ([1]; single inhaled dose 0.625 μg, Genuair, n = 60): 524* ml
- Change from baseline in peak FEV1 on Day 1 ([1]; single inhaled dose 1.25 μg, Genuair, n = 60): 573** ml
- Change from baseline in peak FEV1 on Day 1 ([1]; single inhaled dose 2.5 μg, Genuair, n = 61): 608*** ml
- Tolerability (ECG, laboratory parameters, adverse events) ([2]; COPD patients, doses 0.625-10 micrograms, no dose-dependent effect): well tolerated
- Trough FEV1 compared with indacaterol 150 micrograms ([2]; doses of 2.5, 5 and 10 micrograms, statistically significant): greater trough FEV1
- Minimum therapeutic effective dose producing higher bronchodilatory effects when compared with indacaterol 150 micrograms ([2]; metered nominal dose, Genuair): 2.5 micrograms
- Change from baseline in morning pre-dose (trough) FEV1 at Day 2 ([2]; single inhaled dose 0.625 μg, Genuair, n = 67): 66* ml
- Change from baseline in morning pre-dose (trough) FEV1 at Day 2 ([2]; single inhaled dose 2.5 μg, Genuair, n = 66): 168** ml
- Change from baseline in morning pre-dose (trough) FEV1 at Day 2 ([2]; single inhaled dose 5 μg, Genuair): 198** ml
- Change from baseline in morning pre-dose (trough) FEV1 at Day 2 ([2]; single inhaled dose 10 μg, Genuair): 223*** ml
- Delivered dose per dose [3, 6]: about 1.1 micrograms
- Delivered dose per dose [3, 7]: about 2.3 micrograms
- Fine particle dose (FPD<5 μm) per dose [4, 6]: about 0.45 micrograms
- Fine particle dose (FPD<5 μm) per dose [4, 7]: about 1.0 micrograms
- Duration of bronchodilation effect ([5]; all dose levels tested): more than 24 h
- Changes on safety outcomes (HR, QTcF, glucose and potassium) ([5]; all doses tested): no overall clinically relevant changes
- Minimum dose having similar therapeutic effect to salbutamol and indacaterol ([5]; metered nominal dose, Genuair): 0.625 micrograms

Compound: CCc1cc2c(cc1CC)CC(NC[C@H](O)c1ccc(O)c3[nH]c(=O)ccc13)C2 [Indacaterol, reference compound]
- Change from baseline in morning pre-dose (trough) FEV1 at Day 2 ([2]; 150 μg, Onbrez Breezhaler, n = 68): 76* ml

Compound: CC(C)(C)NCC(O)c1ccc(O)c(CO)c1 (centres unmarked) [Salbutamol, reference compound]
- Change from baseline in peak FEV1 on Day 1 ([1]; 400 μg (100 micrograms×4 puffs), Ventolin Evohaler, n = 58): 555** ml
